Source: ChEMBL document CHEMBL6115027, “Bisboronic Ester-Enabled Redox-Targeted Cancer Therapy: A Cascade ROS Consumption Approach for Efficient Elimination of Cancer Cells” (J Med Chem, 2025)
Blank lines part the entries; values can stand above or below the molecule they belong to. Calls of active or inactive are those of the source. No cut-off for these calls is given here.

Key:
HeLa [1] = assay: Cytotoxicity against human HeLa cells assessed as reduction in cell viability incubated for 24 hrs by CCK-8 assay; assay type: functional, cell-based
[2] = Reactivity of compound assessed as consumption of H2O2 by measuring phenol intermediate formation after 1 hr relative to control; assay type: physicochemical
T-24 = assay: Cytotoxicity against human T24 cells assessed as reduction in cell viability incubated for 24 hrs by CCK-8 assay; assay type: functional, cell-based; conditions: T-24, 24 h
HeLa [3] = assay: Induction of ROS generation in human HeLa cells assessed as increase in ROS level incubated for 1 to 36 hrs by DCFH-DA staining based confocal imaging analysis; assay type: functional, cell-based; conditions: time 1-36 hrs
HeLa [4] = assay: Induction of ROS generation in human HeLa cells assessed as increase in ROS level incubated for 48 hrs by DCFH-DA staining based confocal imaging analysis; assay type: functional, cell-based
HeLa [5] = assay: Induction of apoptosis in human HeLa cells assessed as viable cells at 6.8 uM incubated for 48 hrs by Annexin V-Alexa fluor 647 and propidium iodide staining based flow cytometry relative to control; assay type: functional; conditions: read-out: Activity
HeLa [6] = assay: Induction of apoptosis in human HeLa cells assessed as early apoptotic cells at 6.8 uM incubated for 48 hrs by Annexin V-Alexa fluor 647 and propidium iodide staining based flow cytometry relative to control; assay type: functional
HeLa [7] = assay: Induction of apoptosis in human HeLa cells assessed as late apoptotic cells at 6.8 uM incubated for 48 hrs by Annexin V-Alexa fluor 647 and propidium iodide staining based flow cytometry relative to control; assay type: functional
HeLa [8] = assay: Induction of apoptosis in human HeLa cells assessed as necrotic cells at 6.8 uM incubated for 48 hrs by Annexin V-Alexa fluor 647 and propidium iodide staining based flow cytometry relative to control; assay type: functional
HeLa [9] = assay: Induction of apoptosis in human HeLa cells assessed as viable cells at 13.6 uM incubated for 48 hrs by Annexin V-Alexa fluor 647 and propidium iodide staining based flow cytometry relative to control; assay type: functional; conditions: read-out: Activity
HeLa [10] = assay: Induction of apoptosis in human HeLa cells assessed as early apoptotic cells at 13.6 uM incubated for 48 hrs by Annexin V-Alexa fluor 647 and propidium iodide staining based flow cytometry relative to control; assay type: functional
HeLa [11] = assay: Induction of apoptosis in human HeLa cells assessed as late apoptotic cells at 13.6 uM incubated for 48 hrs by Annexin V-Alexa fluor 647 and propidium iodide staining based flow cytometry relative to control; assay type: functional
HeLa [12] = assay: Induction of apoptosis in human HeLa cells assessed as necrotic cells at 13.6 uM incubated for 48 hrs by Annexin V-Alexa fluor 647 and propidium iodide staining based flow cytometry relative to control; assay type: functional
HeLa [13] = assay: Induction of apoptosis in human HeLa cells assessed as viable cells at 27.2 uM incubated for 48 hrs by Annexin V-Alexa fluor 647 and propidium iodide staining based flow cytometry relative to control; assay type: functional; conditions: read-out: Activity
HeLa [14] = assay: Induction of apoptosis in human HeLa cells assessed as early apoptotic cells at 27.2 uM incubated for 48 hrs by Annexin V-Alexa fluor 647 and propidium iodide staining based flow cytometry relative to control; assay type: functional
HeLa [15] = assay: Induction of apoptosis in human HeLa cells assessed as late apoptotic cells at 27.2 uM incubated for 48 hrs by Annexin V-Alexa fluor 647 and propidium iodide staining based flow cytometry relative to control; assay type: functional
HeLa [16] = assay: Induction of apoptosis in human HeLa cells assessed as necrotic cells at 27.2 uM incubated for 48 hrs by Annexin V-Alexa fluor 647 and propidium iodide staining based flow cytometry relative to control; assay type: functional
HeLa [17] = assay: Induction of autophagy in human HeLa cells assessed as change in caspase 1 activity at 5.44 uM incubated for 48 hrs by MDC staining based flow cytometric analysis (reference value: 0.06); assay type: functional
HeLa [18] = assay: Induction of autophagy in human HeLa cells assessed as change in caspase 1 activity at 10.88 uM incubated for 48 hrs by MDC staining based flow cytometric analysis (reference value: 0.06); assay type: functional
HeLa [19] = assay: Induction of autophagy in human HeLa cells assessed as change in caspase 1 activity at 21.76 uM incubated for 48 hrs by MDC staining based flow cytometric analysis (reference value: 0.06); assay type: functional
HeLa [20] = assay: Induction of autophagy in human HeLa cells assessed as change in caspase 1 activity at 43.52 uM incubated for 48 hrs by MDC staining based flow cytometric analysis (reference value: 0.06; assay type: functional
HeLa [21] = assay: Induction of autophagy in human HeLa cells assessed as change in caspase 1 activity at 87.04 uM incubated for 48 hrs by MDC staining based flow cytometric analysis (reference value: 0.06); assay type: functional
HeLa [22] = assay: Induction of autophagy in human HeLa cells assessed as change in caspase 4 activity at 5.44 uM incubated for 48 hrs at wavelength of 405 nm by MDC staining based flow cytometric analysis (reference value: 0.052); assay type: functional
HeLa [23] = assay: Induction of autophagy in human HeLa cells assessed as change in caspase 4 activity at 10.88 uM incubated for 48 hrs at wavelength of 405 nm by MDC staining based flow cytometric analysis (reference value: 0.052); assay type: functional
HeLa [24] = assay: Induction of autophagy in human HeLa cells assessed as change in caspase 4 activity at 21.76 uM incubated for 48 hrs at wavelength of 405 nm by MDC staining based flow cytometric analysis (reference value: 0.052); assay type: functional
HeLa [25] = assay: Induction of autophagy in human HeLa cells assessed as change in caspase 4 activity at 43.52 uM incubated for 48 hrs at wavelength of 405 nm by MDC staining based flow cytometric analysis (reference value: 0.052); assay type: functional
HeLa [26] = assay: Induction of autophagy in human HeLa cells assessed as change in caspase 4 activity at 87.04 uM incubated for 48 hrs at wavelength of 405 nm by MDC staining based flow cytometric analysis (reference value: 0.052); assay type: functional
HeLa [27] = assay: Induction of pyroptosis in human HeLa cells at 10.88 to 43.52 uM; assay type: functional, cell-based; conditions: dose 10.88-43.52 µM

Activity [2]: 96%
Structure (SMILES): CC1(C)OB(c2ccc(-c3ccc(B4OC(C)(C)C(C)(C)O4)cc3)cc2)OC1(C)C
IC50 (HeLa [1]): 1950 nM

Structure (SMILES): CC1(C)OB(c2ccc(-c3ccc(B4OC(C)(C)C(C)(C)O4)c(F)c3)cc2F)OC1(C)C
IC50 (HeLa [1]): 2600 nM

Structure (SMILES): CC1(C)OB(c2cc(C(=O)Oc3ccc(-c4ccccc4)cc3)cc(-c3cc(B4OC(C)(C)C(C)(C)O4)cc(C(=O)Oc4ccc(-c5ccccc5)cc4)c3)c2)OC1(C)C
IC50 (HeLa [1]): 700 nM

Structure (SMILES): CC(C)(C)c1cc(B2OC(C)(C)C(C)(C)O2)cc(-c2cc(B3OC(C)(C)C(C)(C)O3)cc(C(C)(C)C)c2)c1
IC50 (HeLa [1]): 900 nM

Structure (SMILES): Cc1cc(B2OC(C)(C)C(C)(C)O2)cc(-c2cc(C)cc(B3OC(C)(C)C(C)(C)O3)c2)c1
IC50 (HeLa [1]): 790 nM

Structure (SMILES): CC1(C)OB(c2ccc(CCc3ccc(B4OC(C)(C)C(C)(C)O4)cc3)cc2)OC1(C)C
IC50 (HeLa [1]): 710 nM

Structure (SMILES): CC1(C)OB(c2cc(C(F)(F)F)ccc2CCc2ccc(C(F)(F)F)cc2B2OC(C)(C)C(C)(C)O2)OC1(C)C
IC50 (HeLa [1]): 700 nM

Structure (SMILES): CCC1(CC)OB(c2ccc(Cc3ccc(B4OC(C)(C)C(C)(C)O4)cc3)cc2)OC1(CC)CC
IC50 (HeLa [1]): 2110 nM

Structure (SMILES): CC1(C)OB(c2ccc(CCc3ccc(B4OC(C)(C)C(C)(C)O4)c4ccccc34)c3ccccc23)OC1(C)C
IC50 (HeLa [1]): 3440 nM

Structure (SMILES): CC1(C)OB(c2ccc(Cc3ccc(B4OC(C)(C)C(C)(C)O4)c4ccccc34)cc2)OC1(C)C
IC50 (HeLa [1]): 630 nM

Structure (SMILES): COc1ccc(-c2ccc(OC)c(B3OC(C)(C)C(C)(C)O3)c2)cc1B1OC(C)(C)C(C)(C)O1
IC50 (HeLa [1]): 830 nM

Structure (SMILES): CC1(C)OB(c2cccc(CCc3cccc(B4OC(C)(C)C(C)(C)O4)c3F)c2F)OC1(C)C
IC50 (HeLa [1]): 11800 nM

Structure (SMILES): CC1(C)OB(c2ccc(Cc3ccc(B4OC(C)(C)C(C)(C)O4)cc3)cc2)OC1(C)C
IC50 (HeLa [1]): 3150 nM

Structure (SMILES): CC1(C)COB(c2cccc(CCc3cccc(B4OCC(C)(C)CO4)c3)c2)OC1
IC50 (HeLa [1]): 3440 nM

Structure (SMILES): CC1(C)OB(c2ccc(-c3ccc(B4OC(C)(C)C(C)(C)O4)c4ccccc34)c3ccccc23)OC1(C)C
IC50 (HeLa [1]): 690 nM

Structure (SMILES): CC1(C)OB(c2cc(F)ccc2CCc2ccc(F)cc2B2OC(C)(C)C(C)(C)O2)OC1(C)C
IC50 (HeLa [1]): 1800 nM

Structure (SMILES): CC1(C)OB(c2cc(C(=O)Oc3ccc4c(c3)OCO4)cc(-c3cc(B4OC(C)(C)C(C)(C)O4)cc(C(=O)Oc4ccc5c(c4)OCO5)c3)c2)OC1(C)C
IC50 (HeLa [1]): 1000 nM

Structure (SMILES): CC1(C)OB(c2ccc(-c3ccc(-c4ccc(-c5ccc(B6OC(C)(C)C(C)(C)O6)cc5)cc4)cc3)cc2)OC1(C)C
IC50 (HeLa [1]): 2270 nM

Structure (SMILES): CC1(C)COB(c2ccc(CCc3ccc(B4OCC(C)(C)CO4)cc3)cc2)OC1
IC50 (HeLa [1]): 870 nM

Structure (SMILES): CC1(C)OB(c2ccc(F)c(CCc3cc(B4OC(C)(C)C(C)(C)O4)ccc3F)c2)OC1(C)C
IC50 (HeLa [1]): 680 nM
IC50 (T-24): 1140 nM
Activity (HeLa [3]): inactive
Activity (HeLa [4]): Active
viability at 6.8 µM (HeLa [5]): 96.1%
Activity (HeLa [6]): 1.43%
Activity (HeLa [7]): 0.073%
Activity (HeLa [8]): 0.38%
viability at 13.6 µM (HeLa [9]): 95.6%
Activity (HeLa [10]): 2.44%
Activity (HeLa [11]): 0.41%
Activity (HeLa [12]): 1.54%
viability at 27.2 µM (HeLa [13]): 93.7%
Activity (HeLa [14]): 4.28%
Activity (HeLa [15]): 0.63%
Activity (HeLa [16]): 1.41%
OD (HeLa [17]): 0.058
OD (HeLa [18]): 0.062
OD (HeLa [19]): 0.06
OD (HeLa [20]): 0.061
OD (HeLa [21]): 0.062
OD (HeLa [22]): 0.052
OD (HeLa [23]): 0.053
OD (HeLa [24]): 0.051
OD (HeLa [25]): 0.051
OD (HeLa [26]): 0.051
Activity (HeLa [27]): Active
